Laboratory results from patent publication US5468756A, “Imidazonaphthyridine derivatives” (Kyowa Hakko Kogyo Co., Ltd., priority 1990, dated 1995).

Legend:
[1] = test system: carrageenin-induced paw edema; experiment: Effect on carrageenin-induced paw edema; assay type: in vivo, male Wistar rats; conditions: Rattus norvegicus, 3 hours after carrageenin, read-out: Suppression rate for paw swelling, carrageenin-induced edema; for inhibition in vivo at 100 mg/kg: p.o.; for inhibition in vivo at 50 mg/kg: po, 50 mg/kg P.O.
Procedure: a) Effect on carrageenin-induced paw edema
(§1) Male Wistar rats weighing 150 to 160 g (n=3-5) were used in the experiment. After the right hind paw volume was measured with the plethysmograph (TK-101; Unicom Co., Ltd.), the test compound (25, 50 or 100 mg/kg) was orally administered. After one hour, 0.1 ml of 1% carrageenin (λ-carrageenin; PICNIN-A®, Zushi Kagaku Co., Ltd.) was subcutaneously injected into the right hind paw footpad. Three hours after the injection of carrageenin, the right hind paw volume was measured and the swelling rate was determined by the following equation 1. [formula] Vt: the right hind paw volume measured 3 hours after the injection of carrageenin
(§2) Vo: the right hind paw volume measured prior to the injection of carrageenin
(§3) The suppression rate was calculated by the following equation 2. [formula] Swt: the swelling rate of the group administered with the test compound Swc: the swelling rate of the control group administered with physiological saline solution

[2] = test system: passive Schultz-Dale reaction; experiment: Effect on passive Schultz-Dale reaction (broncho-dilative activity), sensitized tracheal strips contracted by antigen; design: species or system male Hartley guinea pigs; conditions: guinea pig tracheal zig-zag strips, 37° C., antigen egg white albumin 1 μg/ml; read-out: Passive Schultz-Dale reaction IC50 (concentration of 50% relaxation rate)
Procedure: d) Effect on passive Schultz-Dale reaction (broncho-dilative activity)
Male Hartley guinea pigs weighing 350 to 500 g were passively sensitized by intraperitoneal injection of rabbit anti-OA serum prepared in advance by the method of Koda et al. [Folia Pharmacol., Japon 66, 237, (1970)]. After 24 hours, the guinea pigs were stunned and exsanguinated, and then tracheae were removed. The zig-zag strips of the tracheae were prepared by the method of Emmerson and Mackay [J. Pharm. Pharmacol., 31, 798, (1979)]. The strips were suspended in Krebs-Henseleit solution at 37° C. under aeration of a mixed gas of 95% oxygen and 5% carbon dioxide, and equilibrated for one hour. Then, antigen (egg white albumin) was introduced in the solution (final concentration; 1 μg/ml), and the contraction was measured by isotonictransducer (TD-112s, made by Nihon Kohden K.K., Japan) and recorded on a recorder (Type 3066, made by Yokogawa-Hokushin Denki, K.K. Japan). After the contraction curves reached a plateau, the test compounds were successively added in order to get cumulative concentration-relaxation curves. The concentration of 50% relaxation rate (IC50) was calculated from the regression line, which was obtained from the cumulative concentration-relaxation curves.

[3] = test system: platelet activating factor (PAF)-induced mortality; experiment: Inhibition effect on platelet activating factor (PAF)-induced mortality; assay type: in vivo, male dd mice; conditions: Mus musculus, po, PAF 40 μg/kg i.v., 3 h, read-out: Survival rate of test compound-administered group; for responders at 100 mg/kg: n = 10, control group survival 0-20%; for responders at 50 mg/kg: 50 mg/kg p.o., n = 10, control group survival 0%
Procedure: e) Inhibition effect on platelet activating factor (PAF)-induced mortality
The experiment was carried out by a minor modification of a known method [Br. J. Pharmacol., 79, 595 (1983)]. Groups each consisting of 10 male dd mice (weighing 28 to 32 g) were used, and 50 or 100 mg/kg of the test compound or a saline (control) was orally administered. One hour after the administration of test compound, 40 μg/kg of PAF (manufactured by Avanti Polar Lipids Co., Ltd.) was intravenously administered. Three hours after PAF injection, the mortality of the animals was observed.

ddY strain male mice = experiment: Acute toxicity (Minimum Lethal Dose); assay type: in vivo
Procedure: The test compound was orally and intraperitoneally administered to ddY strain male mice weighing 20 to 25 g. MLD (Minimum Lethal Dose) was determined by observing the mortality for […] after the administration.

[4] = test system: zymosan-induced paw edema; experiment: Effect on zymosan-induced paw edema; assay type: in vivo, male Wistar rats; conditions: Rattus norvegicus, po, read-out: Suppression rate for paw swelling, zymosan-induced edema; for inhibition in vivo at 25 mg/kg: 25 mg/kg P.O.
Procedure: as §1, §2, §3
b) Effect on zymosan-induced paw edema
The experiment was carried out in the same manner as in the carrageenin-induced paw edema test except that 1% zymosan (Zymosan A®; Sigma Chemical Co.) was used in place of 1% carrageenin and the right hind paw volume was measured […] the injection of the edema-inducing substance instead of 3 hours. The swelling rate and the suppression rate were calculated by equation 1 and equation 2, respectively.

Structure (SMILES): CC(c1ccccc1)n1cnc2c3cccnc3n(-c3ccccc3)c(=O)c21 (stereo not drawn) [Compound 16, 3-(α-Methyl)benzyl-5-phenyl-3H-imidazo[4,5-c][1,8]naphthyridin-4(5H)-one]
- inhibition in vivo at 100 mg/kg [1]: 3.5%
- IC50 [2]: > 10 µM
- responders at 100 mg/kg [3]: 0%
- MLD (Minimum Lethal Dose) i.p. (ddY strain male mice): > 100 mg/kg
- MLD (Minimum Lethal Dose) p.o. (ddY strain male mice): > 300 mg/kg

Structure (SMILES): O=C(O)Cn1cnc2c3cccnc3n(-c3ccccc3)c(=O)c21 [Compound 17, 3-Carboxymethyl-5-phenyl-3H-imidazo[4,5-c][1,8]naphthyridin-4(5H)-one]
- inhibition in vivo at 100 mg/kg [1]: 10.8%
- IC50 [2]: > 10 µM
- responders at 100 mg/kg [3]: 30%
- MLD (Minimum Lethal Dose) i.p. (ddY strain male mice): > 100 mg/kg
- MLD (Minimum Lethal Dose) p.o. (ddY strain male mice): > 300 mg/kg

Structure (SMILES): Cc1nc2c([nH]1)c(=O)n(-c1ccccc1)c1ncccc21 [Compound 18, 2-Methyl-5-phenyl-3H-imidazo[4,5-c][1,8]naphthyridin-4(5H)-one]
- inhibition in vivo at 100 mg/kg [1]: 23.7%
- inhibition in vivo at 25 mg/kg [4]: 26.7%
- IC50 [2]: > 10 µM
- responders at 100 mg/kg [3]: 90%

Structure (SMILES): O=c1c2[nH]c(O)nc2c2cccnc2n1-c1ccccc1 [Compound 21, 2-Hydroxy-5-phenyl-3H-imidazo[4,5-c][1,8]naphthyridin-4(5H)-one]
- inhibition in vivo at 100 mg/kg [1]: 2.3%
- IC50 [2]: 2 µM
- responders at 100 mg/kg [3]: 30%
- MLD (Minimum Lethal Dose) i.p. (ddY strain male mice): > 100 mg/kg
- MLD (Minimum Lethal Dose) p.o. (ddY strain male mice): > 300 mg/kg

Structure (SMILES): COc1ccc(-n2c(=O)c3[nH]cnc3c3cccnc32)cc1 [Compound 22, 5-(4-Methoxy)phenyl-3H-imidazo[4,5-c][1,8]naphthyridin-4(5H)-one]
- inhibition in vivo at 100 mg/kg [1]: 1.9%
- inhibition in vivo at 100 mg/kg [4]: 0%
- IC50 [2]: > 10 µM
- responders at 100 mg/kg [3]: 30%

Structure (SMILES): COc1cccc(-n2c(=O)c3[nH]cnc3c3cccnc32)c1 [Compound 23, 5-(3-Methoxy)phenyl-3H-imidazo[4,5-c][1,8]naphthyridin-4(5H)-one]
- inhibition in vivo at 100 mg/kg [1]: 0%
- inhibition in vivo at 25 mg/kg [4]: 18.1%
- IC50 [2]: > 10 µM
- responders at 100 mg/kg [3]: 10%

Structure (SMILES): Cc1ccc(-n2c(=O)c3[nH]cnc3c3cccnc32)cc1 [Compound 24, 5-(4-Methyl)phenyl-3H-imidazo[4,5-c][1,8]naphthyridin-4(5H)-one]
- inhibition in vivo at 50 mg/kg [1]: 0.3%
- IC50 [2]: > 10 µM
- responders at 100 mg/kg [3]: 40%

Structure (SMILES): Cc1cccc(-n2c(=O)c3[nH]cnc3c3cccnc32)c1 [Compound 25, 5-(3-Methyl)phenyl-3H-imidazo[4,5-c][1,8]naphthyridin-4(5H)-one]
- inhibition in vivo at 100 mg/kg [1]: 13.8%
- IC50 [2]: > 10 µM
- responders at 100 mg/kg [3]: 60%

Structure (SMILES): O=c1c2[nH]cnc2c2cccnc2n1-c1cccc(Cl)c1 [Compound 26, 5-(3-Chloro)phenyl-3H-imidazo[4,5-c][1,8]naphthyridin-4(5H)-one]
- inhibition in vivo at 100 mg/kg [1]: 15.2%
- IC50 [2]: > 10 µM
- responders at 100 mg/kg [3]: 90%

Structure (SMILES): CCCCn1c(=O)c2[nH]cnc2c2cccnc21 [Compound 27, 5-n-Butyl-3H-imidazo[4,5-c][1,8]naphthyridin-4(5H)-one]
- inhibition in vivo at 100 mg/kg [1]: 8.6%
- IC50 [2]: > 10 µM
- responders at 100 mg/kg [3]: 60%

Structure (SMILES): CCCCn1c(=O)c2c(ncn2C)c2cccnc21 [Compound 28, 5-n-Butyl-3-methyl-3H-imidazo[4,5-c][1,8]naphthyridin-4(5H)-one]
- inhibition in vivo at 100 mg/kg [1]: 20.6%
- inhibition in vivo at 25 mg/kg [4]: 26.7%
- IC50 [2]: 4.5 µM
- responders at 100 mg/kg [3]: 70%

Structure (SMILES): CCCCCCn1cnc2c3cccnc3n(-c3ccccc3)c(=O)c21 [Compound 30, 3-Hexyl-5-phenyl-3H-imidazo[4,5-c][1,8]naphthyridin-4(5H)-one]
- inhibition in vivo at 100 mg/kg [1]: 48.5%
- inhibition in vivo at 25 mg/kg [4]: 33.5%
- responders at 100 mg/kg [3]: 90%
- MLD (Minimum Lethal Dose) i.p. (ddY strain male mice): > 100 mg/kg
- MLD (Minimum Lethal Dose) p.o. (ddY strain male mice): > 300 mg/kg

Structure (SMILES): O=c1c2c(ncn2CC2CCCCC2)c2cccnc2n1-c1ccccc1 [Compound 37, 3-Cyclohexylmethyl-5-phenyl-3H-imidazo[4,5-c][1,8]naphthyridin-4(5H)-one]
- inhibition in vivo at 50 mg/kg [1]: 34.7%
- inhibition in vivo at 25 mg/kg [4]: 49.8%
- IC50 [2]: 6.2 µM
- responders at 100 mg/kg [3]: 90%

Structure (SMILES): O=c1c2c(ncn2Cc2ccc(Cl)cc2)c2cccnc2n1-c1ccccc1 [Compound 40, 3-(4-Chlorophenyl)methyl-5-phenyl-3H-imidazo[4,5-c][1,8]naphthyridin-4(5H)-one]
- inhibition in vivo at 100 mg/kg [1]: 21.3%
- inhibition in vivo at 25 mg/kg [4]: 42.8%
- responders at 100 mg/kg [3]: 40%

Structure (SMILES): Cc1cccc(Cn2cnc3c4cccnc4n(-c4ccccc4)c(=O)c32)c1 [Compound 41, 3-(3-Methylphenyl)methyl-5-phenyl-3H-imidazo[4,5-c][1,8]naphthyridin-4(5H)-one]
- inhibition in vivo at 100 mg/kg [1]: 47.7%
- inhibition in vivo at 25 mg/kg [4]: 33.3%
- IC50 [2]: 10 µM
- responders at 50 mg/kg [3]: 80%

Structure (SMILES): O=c1c2c(ncn2Cc2ccc([N+](=O)[O-])cc2)c2cccnc2n1-c1ccccc1 [Compound 42, 3-(4-Nitrophenyl)methyl-5-phenyl-3H-imidazo[4,5-c][1,8]naphthyridin-4(5H)-one]
- inhibition in vivo at 100 mg/kg [1]: 35.9%
- inhibition in vivo at 25 mg/kg [4]: 45.6%
- responders at 50 mg/kg [3]: 100%

Structure (SMILES): Cc1ccc(Cn2cnc3c4cccnc4n(-c4ccccc4)c(=O)c32)cc1 [Compound 43, 3-(4-Methylphenyl)methyl-5-phenyl-3H-imidazo[4,5-c][1,8]naphthyridin-4(5H)-one]
- inhibition in vivo at 100 mg/kg [1]: 39.2%
- inhibition in vivo at 25 mg/kg [4]: 56.2%
- responders at 100 mg/kg [3]: 70%
- MLD (Minimum Lethal Dose) i.p. (ddY strain male mice): > 100 mg/kg
- MLD (Minimum Lethal Dose) p.o. (ddY strain male mice): > 300 mg/kg

Structure (SMILES): COc1ccc(Cn2cnc3c4cccnc4n(-c4ccccc4)c(=O)c32)cc1 [Compound 45, 3-(4-Methoxyphenyl)methyl-5-phenyl-3H-imidazo[4,5-c][1,8]naphthyridin-4(5H)-one]
- inhibition in vivo at 100 mg/kg [1]: 37.8%
- inhibition in vivo at 25 mg/kg [4]: 66.9%
- responders at 100 mg/kg [3]: 40%

Structure (SMILES): COc1cccc(Cn2cnc3c4cccnc4n(-c4ccccc4)c(=O)c32)c1 [Compound 46, 3-(3-Methoxyphenyl)methyl-5-phenyl-3H-imidazo[4,5-c][1,8]naphthyridin-4(5H)-one]
- inhibition in vivo at 25 mg/kg [4]: 43.5%
- responders at 100 mg/kg [3]: 10%

Structure (SMILES): O=c1c2c(ncn2Cc2cccc([N+](=O)[O-])c2)c2cccnc2n1-c1ccccc1 [Compound 47, 3-(3-Nitrophenyl)methyl-5-phenyl-3H-imidazo[4,5-c][1,8]naphthyridin-4(5H)-one]
- inhibition in vivo at 100 mg/kg [1]: 33.1%
- inhibition in vivo at 25 mg/kg [4]: 35.7%
- responders at 100 mg/kg [3]: 0%
- MLD (Minimum Lethal Dose) i.p. (ddY strain male mice): > 100 mg/kg
- MLD (Minimum Lethal Dose) p.o. (ddY strain male mice): > 300 mg/kg

Structure (SMILES): Cc1cccc(-n2c(=O)c3c(ncn3Cc3ccccc3)c3cccnc32)c1 [Compound 58, 5-(3-Methylphenyl)-3-benzyl-3H-imidazo[4,5-c][1,8]naphthyridin-4(5H)-one]
- inhibition in vivo at 50 mg/kg [1]: 36.3%
- inhibition in vivo at 25 mg/kg [4]: 47%
- responders at 100 mg/kg [3]: 100%
- MLD (Minimum Lethal Dose) i.p. (ddY strain male mice): > 100 mg/kg
- MLD (Minimum Lethal Dose) p.o. (ddY strain male mice): > 300 mg/kg

Structure (SMILES): O=c1c2c(ncn2Cc2ccccc2)c2cccnc2n1-c1cccc(Cl)c1 [Compound 59, 5-(3-Chlorophenyl)-3-benzyl-3H-imidazo[4,5-c][1,8]naphthyridin-4(5H)-one]
- inhibition in vivo at 50 mg/kg [1]: 36.4%
- inhibition in vivo at 25 mg/kg [4]: 47.9%
- responders at 100 mg/kg [3]: 70%
- MLD (Minimum Lethal Dose) i.p. (ddY strain male mice): > 100 mg/kg
- MLD (Minimum Lethal Dose) p.o. (ddY strain male mice): > 300 mg/kg
